Measurements reported in PubChem BioAssay (NCI).
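A five-concentration, 48-hour dose response in 96-well plates underlies each endpoint, interpolated linearly between surrounding concentrations. TGI is the concentration that stops growth completely.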

Key:
Experiment in all cases: NCI tumour cell line growth inhibition, 48 h
[1] = test system: A549 NSCLC
[2] = test system: RPMI-8226 leukemia
[3] = test system: K-562 leukemia
[4] = test system: HL-60(TB) leukemia
[5] = test system: SNB-19 CNS
[6] = test system: SK-OV-3 ovarian
[7] = test system: LXFL 529 NSCLC
[8] = test system: UACC-257 melanoma
[9] = test system: DLD-1 colon
[10] = test system: NCI-H522 lung
[11] = test system: SN12C renal
[12] = test system: HT29 colon
[13] = test system: COLO 205 colon
[14] = test system: MOLT-4 leukemia
[15] = test system: XF 498 CNS
[16] = test system: MALME-3M melanoma
[17] = test system: SF-268 CNS
[18] = test system: SR leukemia
[19] = test system: KM20L2 colon
[20] = test system: U251 CNS
[21] = test system: M14 melanoma
[22] = test system: CCRF-CEM leukemia
[23] = test system: HOP-62 NSCLC
[24] = test system: SW-620 colon
[25] = test system: SK-MEL-28 melanoma
[26] = test system: NCI-H23 lung
[27] = test system: SF-295 CNS
[28] = test system: HOP-92 NSCLC
[29] = test system: HCT-116 colon
[30] = test system: SF-539 CNS
[31] = test system: HCT-15 colon
[32] = test system: M19-MEL melanoma
[33] = test system: OVCAR-4 ovarian
[34] = test system: 786-0 renal
[35] = test system: RXF 393 renal
[36] = test system: SNB-78 CNS
[37] = test system: UO-31 renal
[38] = test system: IGROV1 ovarian
[39] = test system: SNB-75 CNS
[40] = test system: HOP-18 NSCLC
[41] = test system: UACC-62 melanoma
[42] = test system: DMS 273 small cell lung
[43] = test system: EKVX NSCLC
[44] = test system: OVCAR-8 ovarian
[45] = test system: ACHN renal
[46] = test system: HCC-2998 colon
[47] = test system: NCI-H226 lung
[48] = test system: SK-MEL-5 melanoma
[49] = test system: A498 renal
[50] = test system: DMS 114 small cell lung
[51] = test system: KM12 colon
[52] = test system: NCI-H460 lung
[53] = test system: RXF-631 renal
[54] = test system: TK-10 renal
[55] = test system: SK-MEL-2 melanoma
[56] = test system: LOX IMVI melanoma
[57] = test system: CAKI-1 renal
[58] = test system: OVCAR-5 ovarian
[59] = test system: OVCAR-3 ovarian

O=C1C2ON3c4ccccc4C(=O)C3(c3ccccc3)C2C(=O)N1c1ccccc1 (stereo not drawn)
TGI [1]: > 100 µM
TGI [2]: > 100 µM
TGI [3]: > 100 µM
TGI [4]: > 100 µM
TGI [5]: > 100 µM
TGI [6]: > 100 µM
TGI [7]: > 100 µM
TGI [8]: > 100 µM
TGI [9]: > 100 µM
TGI [10]: > 100 µM
TGI [11]: > 100 µM
TGI [12]: > 100 µM
TGI [13]: > 100 µM
TGI [14]: > 100 µM
TGI [15]: > 100 µM
TGI [16]: > 100 µM
TGI [17]: > 100 µM
TGI [18]: > 100 µM
TGI [19]: > 100 µM
TGI [20]: > 100 µM
TGI [21]: > 100 µM
TGI [22]: > 100 µM
TGI [23]: > 100 µM
TGI [24]: > 100 µM
TGI [25]: > 100 µM
TGI [26]: > 100 µM
TGI [27]: > 100 µM
TGI [28]: > 100 µM
TGI [29]: > 100 µM
TGI [30]: > 100 µM
TGI [31]: > 100 µM
TGI [32]: > 100 µM
TGI [33]: > 100 µM
TGI [34]: > 100 µM
TGI [35]: > 100 µM
TGI [36]: > 100 µM
TGI [37]: > 100 µM
TGI [38]: > 100 µM
TGI [39]: > 100 µM
TGI [40]: > 100 µM
TGI [41]: > 100 µM
TGI [42]: > 100 µM
TGI [43]: > 100 µM
TGI [44]: > 100 µM
TGI [45]: > 100 µM
TGI [46]: > 100 µM
TGI [47]: > 100 µM
TGI [48]: > 100 µM
TGI [49]: > 100 µM

CCCCN=C1OCc2[nH][nH]c(=O)c21
TGI [1]: > 100 µM
TGI [2]: > 100 µM
TGI [3]: > 100 µM
TGI [4]: > 100 µM
TGI [5]: > 100 µM
TGI [6]: > 100 µM
TGI [7]: > 100 µM
TGI [8]: > 100 µM
TGI [9]: > 100 µM
TGI [10]: > 100 µM
TGI [50]: > 100 µM
TGI [11]: > 100 µM
TGI [12]: > 100 µM
TGI [13]: > 100 µM
TGI [14]: > 100 µM
TGI [15]: > 100 µM
TGI [51]: > 100 µM
TGI [17]: > 100 µM
TGI [52]: > 100 µM
TGI [18]: > 100 µM
TGI [19]: > 100 µM
TGI [20]: > 100 µM
TGI [21]: > 100 µM
TGI [53]: > 100 µM
TGI [22]: > 100 µM
TGI [23]: > 100 µM
TGI [24]: > 100 µM
TGI [54]: > 100 µM
TGI [55]: > 100 µM
TGI [25]: > 100 µM
TGI [26]: > 100 µM
TGI [27]: > 100 µM
TGI [28]: > 100 µM
TGI [29]: > 100 µM
TGI [30]: > 100 µM
TGI [31]: > 100 µM
TGI [56]: > 100 µM
TGI [32]: > 100 µM
TGI [33]: > 100 µM
TGI [35]: > 100 µM
TGI [36]: > 100 µM
TGI [37]: > 100 µM
TGI [38]: > 100 µM
TGI [39]: > 100 µM
TGI [57]: > 100 µM
TGI [41]: > 100 µM
TGI [42]: > 100 µM
TGI [43]: > 100 µM
TGI [44]: > 100 µM
TGI [45]: > 100 µM
TGI [46]: > 100 µM
TGI [58]: > 100 µM
TGI [47]: > 100 µM
TGI [48]: > 100 µM
TGI [49]: > 100 µM

Cc1c(C2Cc3ccccc3N2)c2ccccc2n1C (stereo not drawn)
TGI [1]: > 100 µM
TGI [3]: > 100 µM
TGI [4]: > 100 µM
TGI [5]: > 100 µM
TGI [6]: > 100 µM
TGI [59]: > 100 µM
TGI [7]: > 100 µM
TGI [8]: > 100 µM
TGI [9]: > 100 µM
TGI [10]: > 100 µM
TGI [50]: > 100 µM
TGI [11]: > 100 µM
TGI [12]: > 100 µM
TGI [13]: > 100 µM
TGI [14]: > 100 µM
TGI [15]: > 100 µM
TGI [51]: > 100 µM
TGI [16]: > 100 µM
TGI [17]: > 100 µM
TGI [52]: > 100 µM
TGI [18]: > 100 µM
TGI [19]: > 100 µM
TGI [20]: > 100 µM
TGI [21]: > 100 µM
TGI [22]: > 100 µM
TGI [23]: > 100 µM
TGI [24]: > 100 µM
TGI [54]: > 100 µM
TGI [55]: > 100 µM
TGI [26]: > 100 µM
TGI [27]: > 100 µM
TGI [29]: > 100 µM
TGI [30]: > 100 µM
TGI [31]: > 100 µM
TGI [56]: > 100 µM
TGI [32]: > 100 µM
TGI [33]: > 100 µM
TGI [34]: > 100 µM
TGI [35]: > 100 µM
TGI [36]: > 100 µM
TGI [37]: > 100 µM
TGI [38]: > 100 µM
TGI [39]: > 100 µM
TGI [57]: > 100 µM
TGI [41]: > 100 µM
TGI [42]: > 100 µM
TGI [43]: > 100 µM
TGI [44]: > 100 µM
TGI [45]: > 100 µM
TGI [46]: > 100 µM
TGI [58]: > 100 µM
TGI [47]: > 100 µM
TGI [48]: > 100 µM
TGI [49]: > 100 µM

O=C(c1ccccc1)c1c(CC(O)c2ccccc2)n(C(=O)c2ccccc2)c2ccccc12 (stereo not drawn)
TGI [1]: > 100 µM
TGI [2]: > 100 µM
TGI [3]: > 100 µM
TGI [4]: > 100 µM
TGI [5]: > 100 µM
TGI [59]: > 100 µM
TGI [7]: > 100 µM
TGI [8]: > 100 µM
TGI [9]: > 100 µM
TGI [10]: 64.7 µM
TGI [50]: > 100 µM
TGI [12]: > 100 µM
TGI [13]: > 100 µM
TGI [14]: 54.4 µM
TGI [15]: > 100 µM
TGI [51]: > 100 µM
TGI [16]: > 100 µM
TGI [17]: > 100 µM
TGI [52]: > 100 µM
TGI [18]: 72.8 µM
TGI [19]: > 100 µM
TGI [20]: > 100 µM
TGI [21]: > 100 µM
TGI [22]: > 100 µM
TGI [23]: > 100 µM
TGI [24]: > 100 µM
TGI [54]: > 100 µM
TGI [55]: > 100 µM
TGI [25]: > 100 µM
TGI [26]: 69.5 µM
TGI [27]: > 100 µM
TGI [28]: 98.9 µM
TGI [29]: > 100 µM
TGI [30]: > 100 µM
TGI [31]: > 100 µM
TGI [32]: > 100 µM
TGI [33]: > 100 µM
TGI [34]: > 100 µM
TGI [37]: 60.6 µM
TGI [38]: > 100 µM
TGI [39]: 58.2 µM
TGI [57]: > 100 µM
TGI [41]: > 100 µM
TGI [42]: > 100 µM
TGI [44]: > 100 µM
TGI [45]: > 100 µM
TGI [46]: > 100 µM
TGI [58]: > 100 µM
TGI [47]: > 100 µM
TGI [48]: > 100 µM
